From patent US10280156B2, “Heteroaromatic chalcone derivatives and their medical use” (Medizinische Universität Wien, priority 2014, dated 2019)

Legend:
[1] = system: U-2940; test: Viability test on U-2940 cells, 48 h; assay type: cell-based, human; conditions: 48 h incubation, nd = no significant cytotoxic activity up to 100 μM
Protocol: (§1) JURKAT and CCRF-CEM (T-cell acute lymphoblastic leukemia), HL60 and K562 representing acute and chronic myeloid leukemia, respectively, the chronic lymphocytic leukemia cell line MEC-1, and the diffuse large B-cell lymphoma cell line U-2940 were cultured in Gibco RPMI 1640+GlutaMAX (Life Technologies, Carlsbad, Calif., USA) supplemented with 10% fetal bovine serum gold (FBS gold; PAA Laboratories, Pasching, Austria) and 1% PenStrep (100 U/ml penicillin and 100 μg/ml streptomycin; PAA Laboratories), and maintained at 37° C. in humidified atmosphere with 5% CO2. The diffuse large B-cell lymphoma cell line OCI-LY7 was cultured in Gibco IMDM+GlutaMAX and 25 mM HEPES (Life Technologies) containing 20% FBS gold and 1% PenStrep.
(§2) All experiments with hematological cell lines were done using phenol red-free RPMI 1640+L-glutamine (PAA Laboratories) supplemented with 1% PenStrep and 10% FBS gold, except experiments with OCI-Ly7 which were carried out in Gibco IMEM+GlutaMAX and 25 mM HEPES containing 20% FBS gold and 1% PenStrep. Cells were incubated in triplicates with increasing concentrations of the compounds for 48 h, changes in viability were determined using the cell proliferation and cytotoxicity assays EZ4U (Biomedica Group, Austria) and CellTiter-Blue Cell Viability Assay (Promega, Madison, Wis., USA) following instructions of the manufacturers. IC50 values were calculated from two independent experiments using GraphPad Prism 5 software.
(§3) Initially, compounds were biologically tested in six concentration steps (0.1 μM; 1 μM; 5 μM; 10 μM; 50 μM; and 100 μM) using the CellTiter-Blue Cell Viability Assay (Promega, Madison, Wis., USA) and an incubation time of 48 hours. […] IC50 values were calculated from at least two independent experiments with 3 replicates each. In order to evaluate the biologic activity of the new compounds, cytotoxicity was compared to that of fludarabine, an already approved drug for the treatment of various B-cell malignancies. […] Differences in IC50 values for the different cell types can be explained by the biological and genetic particularities of each subtype of B-cell Non-Hodgkin lymphoma (Stacchini A et al. Leukemia Res 1999, 23, 127-136; Sambade C et al. Int J Cancer 2006, 118, 555-563; Chang H et al. Leukemia lymphoma 1995, 19, 165-171; Tweeddale M E et al. Blood 1987, 69, 1307-1314; Tweeddale M et al. Blood 1989, 74, 572-578).

[2] = system: MEC1; test: Viability test (CellTiter-Blue/EZ4U) on MEC1 cells, 48 h; assay type: cell-based, human; conditions: 48 h incubation, nd = no significant cytotoxic activity up to 100 μM
Protocol: as §1, §2, §3

[3] = system: OCI-Ly7; test: Viability test on OCI-Ly7 cells, 48 h; assay type: cell-based, human; conditions: 48 h incubation, nd = no significant cytotoxic activity up to 100 μM
Protocol: as §1, §2, §3

[4] = system: M2-10B4; test: Viability test on mouse fibroblast cell line M2-10B4, 48 h; assay type: cell-based; conditions: for IC50: Mus musculus, M210B4, 48 h, 48 h incubation, mouse fibroblast cell line
Protocol: as §2
Structurally seen, the small molecule compound 1 represents a typical chalcone scaffold. It is characterized by an ortho-ethoxy-substituted phenyl part as ring A and a 2-naphthyl moiety symbolizing ring B. The focus of the present study was to guide the systematic identification of a growth inhibitor with specificity to neoplastic cells, as cytotoxicity towards healthy cells is mostly associated with adverse effects, which can be related to morbidity and mortality of the patient (Milligan D W et al. Brit J Haematol 2006, 135, 450-474). To discriminate in vitro between structural elements necessary for potent cytotoxicity towards tumor cells which, at the same time, clearly show less activity on normal cells, the compounds were additionally tested on the murine bone marrow fibroblast cell line M2-10B4. This cell line is regularly used as feeder layer when cultured with patient cells providing additional support and survival signals in particular in drug screens (Kurtova A V et al. Blood 2009, 114, 4441-4450).
as §3

Row | Structure (SMILES) | melting point [°C] | IC50 ([1]; Homo sapiens, U-2940, 48 h) [µM] | IC50 ([2]; Homo sapiens, MEC1, 48 h) [µM] | IC50 ([3]; Homo sapiens, OCI-Ly7, 48 h) [µM] | IC50 [1] [µM] | IC50 [2] [µM] | IC50 [4] [µM] | IC50 [3] [µM] | cytotoxic potential on M2-10B4 (in words) ([4]; mouse fibroblasts)
1 | CCOc1ccc(C(=O)/C=C/c2cc3ccccc3o2)cc1 [Compound 33, (E)-3-(1-Benzofuran-2-yl)-1-(4-ethoxyphenyl)-2-propen-1-one] | 100 to 101 | 42.2 | 38.8 | 19.5 | – | – | – | – | –
2 | CCOc1ccccc1C(=O)/C=C/c1c2ccccc2cc2ccccc12 [Compound 11, 3-(9-Anthranyl)-1-(2-ethoxyphenyl)-2-propen-1-one] | – | > 50 | > 50 | > 50 | > 100 | > 100 | > 50 | > 100 | –
3 | CCCOc1ccccc1C(=O)/C=C/c1ccc2ccccc2c1 [Compound 3, 3-(2-Naphthyl)-1-(2-propoxyphenyl)-2-propen-1-one] | – | 5.31 | 0.13 | 0.1 | – | – | > 100 | – | –
4 | CCOc1ccccc1C(=O)/C=C/c1csc2ccccc12 [Compound 14, 3-(1-Benzothien-3-yl)-1-(2-ethoxyphenyl)-2-propen-1-one] | – | 0.86 | 0.17 | 0.1 | – | – | 8.2 | – | –
5 | CCOc1cccc(C(=O)/C=C/c2ccc3c(c2)OCO3)c1 [Compound 34, (E)-3-(1,3-benzodioxol-5-yl)-1-(3-ethoxyphenyl)prop-2-en-1-one] | – | 18.8 | 8.73 | 6.35 | – | – | – | – | –
6 | CCOc1ccccc1C(=O)/C=C/c1cc2ccccc2c2ccccc12 [Compound 12, 1-(2-Ethoxyphenyl)-3-(9-phenanthrenyl)-2-propen-1-one] | 117 to 120 | 39.9 | 1.63 | – | – | – | > 100 | – | –
7 | CCOc1ccccc1C(=O)/C=C/c1cc2ccccc2o1 [Compound 31, (E)-3-(1-Benzofuran-2-yl)-1-(2-ethoxyphenyl)-2-propen-1-one] | 79 to 81 | 7.1 | 0.2 | 0.05 | – | – | – | – | –
8 | CCOc1ccc(C(=O)/C=C/c2ccc3ccccc3c2)cc1 [Compound 17, 3-(2-Napthyl)-1-(4-ethoxyphenyl)-2-propen-1-one] | 159 to 161 | – | – | – | – | – | – | – | –
9 | CCOc1ccccc1C(=O)/C=C/c1ccc(-c2cccs2)s1 [Compound 30, (E)-3-(2,2′-bithiophen-5-yl)-1-(2-ethoxyphenyl)-2-propen-1-one] | – | 3.13 | 0.02 | 0.02 | – | – | – | – | –
10 | CCOc1ccccc1C(=O)/C=C/c1ccc2cc(OC)ccc2c1 [Compound 7, 1-(2-Ethoxyphenyl)-3-(6-methoxy-2-naphthyl)-2-propen-1-one] | – | 24.7 | 7.16 | 1.01 | – | – | > 100 | – | no cytotoxic potential

The next lines start with results.

Row | melting point [°C] | Structure (SMILES) | IC50 ([1]; Homo sapiens, U-2940, 48 h) [µM] | IC50 ([2]; Homo sapiens, MEC1, 48 h) [µM] | IC50 ([3]; Homo sapiens, OCI-Ly7, 48 h) [µM] | IC50 [1] [µM] | IC50 [2] [µM] | IC50 [4] [µM] | IC50 [3] [µM] | cytotoxic potential on M2-10B4 (in words) ([4]; mouse fibroblasts)
11 | 98 to 99 | CCOc1cccc(C(=O)/C=C/c2ccc3sccc3c2)c1 [Compound 28] | 12.9 | 5.48 | 4.78 | – | – | – | – | –
12 | 156 to 158 | CCOc1cccc(C(=O)/C=C/c2cc3ccccc3[nH]2)c1 [Compound 20, 1-(3-Ethoxyphenyl)-3-(1H-indole-2-yl)-2-propen-1-one] | – | 3.33 | 4.83 | – | – | – | – | –
13 | 121 to 123 | CCOc1cccc(C(=O)/C=C/c2ccc3[nH]ccc3c2)c1 [Compound 23, (E)-1-(3-Ethoxyphenyl)-3-(1H-indol-5-yl)-2-propen-1-one] | 10 | 2.6 | 1.47 | – | – | – | – | –
14 | 149 to 151 | CCOc1ccc(C(=O)/C=C/c2ccc3sccc3c2)cc1 [Compound 29] | – | 231 | – | – | – | – | – | –
